# Measurements: ChEMBL document CHEMBL4017488, “Glucuronides as Potential Anionic Substrates of Human Cytochrome P450 2C8 (CYP2C8)” (J Med Chem, 2017)
# T1: Cytochrome P450 2C8 (Homo sapiens, UniProt P10632)
# T1 sequence (P10632 whole entry): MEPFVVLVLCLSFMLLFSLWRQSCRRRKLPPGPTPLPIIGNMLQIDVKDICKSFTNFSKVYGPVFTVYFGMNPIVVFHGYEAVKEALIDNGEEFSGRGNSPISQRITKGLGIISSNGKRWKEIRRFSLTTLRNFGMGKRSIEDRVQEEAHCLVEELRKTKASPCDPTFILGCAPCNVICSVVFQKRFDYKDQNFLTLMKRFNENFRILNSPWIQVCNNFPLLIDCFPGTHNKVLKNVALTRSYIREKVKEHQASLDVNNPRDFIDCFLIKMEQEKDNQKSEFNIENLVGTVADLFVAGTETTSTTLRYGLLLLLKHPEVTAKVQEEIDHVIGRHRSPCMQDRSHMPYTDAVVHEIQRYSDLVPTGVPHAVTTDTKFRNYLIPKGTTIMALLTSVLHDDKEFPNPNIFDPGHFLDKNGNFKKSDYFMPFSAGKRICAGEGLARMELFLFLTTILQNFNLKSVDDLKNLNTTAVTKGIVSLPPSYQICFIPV
# T2: CYP2C8 (Homo sapiens, UniProt P10632)
# T2 sequence (P10632 whole entry): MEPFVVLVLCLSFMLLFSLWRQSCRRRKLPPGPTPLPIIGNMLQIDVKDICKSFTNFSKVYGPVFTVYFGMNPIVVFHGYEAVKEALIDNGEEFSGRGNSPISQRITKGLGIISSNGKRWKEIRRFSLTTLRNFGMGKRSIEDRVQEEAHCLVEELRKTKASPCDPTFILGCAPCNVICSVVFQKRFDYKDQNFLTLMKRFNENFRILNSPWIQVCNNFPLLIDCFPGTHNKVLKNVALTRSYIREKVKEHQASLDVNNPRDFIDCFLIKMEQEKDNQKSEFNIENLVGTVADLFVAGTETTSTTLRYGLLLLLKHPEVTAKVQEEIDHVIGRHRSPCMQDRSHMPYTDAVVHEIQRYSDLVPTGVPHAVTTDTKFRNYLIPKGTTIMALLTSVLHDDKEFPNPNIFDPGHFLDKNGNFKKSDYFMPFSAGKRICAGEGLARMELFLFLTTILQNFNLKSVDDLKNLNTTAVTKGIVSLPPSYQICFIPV
# T3: CYP1A2 (Homo sapiens, UniProt P05177)
# T3 sequence (P05177 whole entry): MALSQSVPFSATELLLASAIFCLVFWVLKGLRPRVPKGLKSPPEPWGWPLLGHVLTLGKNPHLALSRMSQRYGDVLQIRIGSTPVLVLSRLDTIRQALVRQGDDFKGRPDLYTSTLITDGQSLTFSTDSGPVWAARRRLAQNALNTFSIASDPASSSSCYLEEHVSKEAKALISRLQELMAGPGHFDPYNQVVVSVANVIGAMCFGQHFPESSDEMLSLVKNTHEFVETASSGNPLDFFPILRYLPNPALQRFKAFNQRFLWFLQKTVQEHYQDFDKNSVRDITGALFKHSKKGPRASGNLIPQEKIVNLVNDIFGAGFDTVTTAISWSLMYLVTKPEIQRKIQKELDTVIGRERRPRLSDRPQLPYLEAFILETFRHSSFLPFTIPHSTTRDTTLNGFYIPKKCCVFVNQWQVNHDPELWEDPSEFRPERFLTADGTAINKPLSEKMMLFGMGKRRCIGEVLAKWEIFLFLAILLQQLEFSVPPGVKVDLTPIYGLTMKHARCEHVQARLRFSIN
# T4: Cytochrome P450 1A2 (Homo sapiens, UniProt P05177)
# T4 sequence (P05177 whole entry): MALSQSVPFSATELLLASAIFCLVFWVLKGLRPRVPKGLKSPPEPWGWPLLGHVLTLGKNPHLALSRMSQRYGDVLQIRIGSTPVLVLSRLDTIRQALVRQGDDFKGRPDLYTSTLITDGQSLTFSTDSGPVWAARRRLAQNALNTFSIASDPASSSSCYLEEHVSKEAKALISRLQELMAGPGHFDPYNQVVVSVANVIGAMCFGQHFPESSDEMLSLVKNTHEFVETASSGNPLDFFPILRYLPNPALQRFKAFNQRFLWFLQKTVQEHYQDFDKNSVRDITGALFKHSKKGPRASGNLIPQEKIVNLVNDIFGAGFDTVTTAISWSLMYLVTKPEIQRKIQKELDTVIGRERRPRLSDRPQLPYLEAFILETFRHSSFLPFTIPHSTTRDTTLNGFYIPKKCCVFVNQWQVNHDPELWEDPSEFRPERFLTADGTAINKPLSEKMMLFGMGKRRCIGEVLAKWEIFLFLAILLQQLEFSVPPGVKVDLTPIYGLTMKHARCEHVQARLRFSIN
# Tests used:
# [1] = In vivo drug metabolism in human assessed as UGT2B7-mediated 4'-hydroxydiclofinac acyl glucuronide level in urine; type: ADME, organism-based
# [2] = tested on: Homo sapiens; experiment: In vivo drug metabolism in human assessed as CYP2C9-mediated 4'-hydroxydiclofinac metabolite formation; type: ADME, organism-based
# [3] = target: T1, Cytochrome P450 2C8; experiment: (§1) Inhibition of CYP2C8 in human liver microsomes preincubated for 30 mins followed by substrate addition measured after 2 mins; type: ADME
# [4] = target: T2, CYP2C8; experiment: as §1; type: ADME; details: human, liver microsomes
# [5] = In vivo drug metabolism in human assessed as UGT2B7-mediated gemfibrozil-1-O-beta-glucuronide metabolite levels in urine at 450 mg, po after 24 hrs by HPLC analysis; type: ADME, organism-based
# [6] = In vivo drug metabolism in human assessed as CYP2C8-mediated gemfibrozil-1-O-beta-glucuronide-2'-benzyl alcohol metabolite levels in urine at 450 mg, po after 24 hrs by HPLC analysis; type: ADME, organism-based
# [7] = In vivo drug metabolism in human assessed as CYP2C8-mediated gemfibrozil-1-O-beta-glucuronide-5'-benzyl alcohol metabolite levels in urine at 450 mg, po after 24 hrs by HPLC analysis; type: ADME, organism-based
# [8] = tested on: Homo sapiens; experiment: In vivo inhibition of CYP2C8 in human assessed as reduction in gemfibrozil-1-O-glucuronide metabolite formation in plasma at 30 mg, po administered as single dose measured after 10 hrs by LC-MS/MS analysis
# [9] = target: T3, CYP1A2; experiment: (§2) Inactivation of CYP1A2 in human liver microsomes after 5 mins by LC-MS/MS analysis; type: ADME; details: human, liver microsomes
# [10] = target: T4, Cytochrome P450 1A2; experiment: as §2; type: ADME
# [11] = target: T1, Cytochrome P450 2C8; experiment: Reversible inhibition of CYP2C8 in human liver microsomes after 5 mins by LC-MS/MS analysis; type: ADME
# [12] = target: T1, Cytochrome P450 2C8; experiment: (§3) Time dependent inhibition of CYP2C8 in human liver microsomes after 5 mins by LC-MS/MS analysis; type: ADME
# [13] = target: T2, CYP2C8; experiment: as §3; type: ADME; details: human, liver microsomes
# [14] = target: T1, Cytochrome P450 2C8; experiment: Inhibition of CYP2C8 in human liver microsomes using paclitaxel as substrate preincubated for 2 to 40 mins followed by NADPH-generating system addition measured after 2 mins; type: ADME
# [15] = target: T1, Cytochrome P450 2C8; experiment: Inhibition of CYP2C8 in human liver microsomes using paclitaxel as substrate after 5 mins; type: ADME
# [16] = In vivo drug metabolism in human assessed as CYP2C8-mediated glucuronide conjugate formation in urine by LC-MS/MS analysis; type: ADME, organism-based
# [17] = tested on: Blood; experiment: In vivo drug metabolism in human assessed as UGT-mediated deleobuvir acyl glucuronide metabolite formation in blood at 800 mg,po administered as single dose measured up to 12 hrs; type: ADME, organism-based
# [18] = tested on: Blood; experiment: In vivo drug metabolism in human assessed as 3-(2-(1-(2-(5-bromopyrimidin-2-yl)-3-cyclopentyl-1-methyl-1H-indole-6-carboxamido)cyclobutyl)-1-methyl-1H-benzo[d]imidazol-6-yl)propanoic acid metabolite formation in blood at 800 mg,po administered as single dose measured up to 12 hrs by radiolabled assay; type: ADME, organism-based
# [19] = substrate: C[C@]12CC[C@@H]3c4ccc(O)cc4CC[C@H]3[C@@H]1CC[C@@H]2O[C@@H]1O[C@H](C(=O)O)[C@@H](O)[C@H](O)[C@H]1O; experiment: Drug metabolism in human liver microsomes assessed as CYP2C8-mediated glucuronide conjugate formation per nmol of protein after 30 mins by HPLC-MS/MS analysis; type: ADME
molecule,measurement,setting,value
O=C(O)Cc1ccccc1Nc1c(Cl)cccc1Cl [DICLOFENAC],Drug metabolism,[1],10 to 20 %ID
same,Drug metabolism,[2],30 %ID
O=C(O)[C@H]1O[C@@H](OC(=O)[C@H](c2ccccc2Cl)N2CCc3sccc3C2)[C@H](O)[C@@H](O)[C@@H]1O,Ki,[3],9.9 µM
same,kinact at 2 min,[4],0.000783 s⁻¹
Cc1ccc(C)c(OCCCC(C)(C)C(=O)O)c1 [GEMFIBROZIL],Drug metabolism,[5],32 %ID
same,Drug metabolism,[6],20 %ID
same,Drug metabolism,[7],20 %ID
same,inhibition (INH),[8],50%
Cn1c(C2(NC(=O)c3ccc4c(C5CCCC5)c(-c5ncc(Br)cn5)n(C)c4c3)CCC2)nc2ccc(/C=C/C(=O)O[C@@H]3O[C@H](C(=O)O)[C@@H](O)[C@H](O)[C@H]3O)cc21,kinact at 5 min,[9],0.000733 s⁻¹
same,Ki,[10],54.6 µM
same,Ki,[11],22 nM
same,Ki,[12],52.1 nM
same,kinact at 5 min,[13],0.000868 s⁻¹
Cc1ccc(C)c(OCCCC(C)(C)C(=O)O[C@@H]2O[C@H](C(=O)O)[C@@H](O)[C@H](O)[C@H]2O)c1,Ki,[14],52 µM
same,IC50,[15],24 µM
CC(C)Cc1ccc(C(C)C(=O)O)cc1 (stereo not given) [IBUPROFEN],Drug metabolism,[16],10 to 15 %ID
Cn1c(C2(NC(=O)c3ccc4c(C5CCCC5)c(-c5ncc(Br)cn5)n(C)c4c3)CCC2)nc2ccc(/C=C/C(=O)O)cc21 [DELEOBUVIR],Drug metabolism,[17],20 %ID
same,Drug metabolism,[18],15 %ID
Cytochrome P450 2C8 (Homo sapiens) (protein) MEPFVVLVLCLSFMLLFSLWRQSCRRRKLPPGPTPLPIIGNMLQIDVKDICKSFTNFSKVYGPVFTVYFGMNPIVVFHGYEAVKEALIDNGEEFSGRGNSPISQRITKGLGIISSNGKRWKEIRRFSLTTLRNFGMGKRSIEDRVQEEAHCLVEELRKTKASPCDPTFILGCAPCNVICSVVFQKRFDYKDQNFLTLMKRFNENFRILNSPWIQVCNNFPLLIDCFPGTHNKVLKNVALTRSYIREKVKEHQASLDVNNPRDFIDCFLIKMEQEKDNQKSEFNIENLVGTVADLFVAGTETTSTTLRYGLLLLLKHPEVTAKVQEEIDHVIGRHRSPCMQDRSHMPYTDAVVHEIQRYSDLVPTGVPHAVTTDTKFRNYLIPKGTTIMALLTSVLHDDKEFPNPNIFDPGHFLDKNGNFKKSDYFMPFSAGKRICAGEGLARMELFLFLTTILQNFNLKSVDDLKNLNTTAVTKGIVSLPPSYQICFIPV,Km,[19],88 µM
same,Vmax,[19],0.00186 µmol/min
